Patent US20210045385A1, “PYRIDAZINONE-SUBSTITUTED KETOXIMES AS HERBICIDES” (FMC Corporation, priority 2018, published 2021)

Assays:
Assay type in all cases: in vivo
[1] = system: ducksalad (Heteranhera limosa); assay: Test B flooded paddy test, visual plant response rating; details: 250 g ai/ha, Flood, applied to paddy water, 2-leaf stage, evaluated after 13 to 15 days
Outline: (§1)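 At the two-leaf stage, seedlings received compound applied to paddy water flooded 3 cm above soil, a level sustained until assessment. Greenhouse incubation lasted 13 to 15 days before visual comparison with control plants.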

rice (Oryza sativa) = assay: as above; details: 250 g ai/ha, Flood, applied to paddy water, 2-leaf stage, evaluated after 13 to 15 days
Outline: as §1

[2] = system: barnyardgrass (Echinochloa crus-galli); assay: as above; details: 250 g ai/ha, Flood, applied to paddy water, 2-leaf stage, evaluated after 13 to 15 days
Outline: as §1

[3] = system: sedge, umbrella (small-flower umbrella sedge, Cyperus difformis); assay: as above; details: 250 g ai/ha, Flood, applied to paddy water, 2-leaf stage, evaluated after 13 to 15 days
Outline: as §1

[4] = system: pigweed (Amaranthus retroflexus); assay: Test A preemergence, visual plant response rating; details: for Pigweed plant response rating: 125 g ai/ha, preemergence, 0 to 100 scale, 0 no effect, 100 complete control; for Pigweed plant response rating (0 to 100 scale): 500 g ai/ha Preemergence, approx. 10 days
Outline: (§2)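 Greenhouse evaluation, approx. 10 days post-spray. Soil: loam + sand. Postemergence stage: 1–2 leaves, height 2–10 cm. Vehicle: non-phytotoxic solvent blend with surfactant. Score: visual injury on a 0 (no effect) to 100 (complete control) scale.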

[5] = system: barnyardgrass (Echinochloa crus-galli); assay: Test A preemergence, visual plant response rating; details: for Barnyardgrass plant response rating: 125 g ai/ha, preemergence, 0 to 100 scale, 0 no effect, 100 complete control; for Barnyardgrass plant response rating (0 to 100 scale): 500 g ai/ha Preemergence, approx. 10 days
Outline: as §2

[6] = system: Italian ryegrass (Lolium multiflorum); assay: Test A preemergence, visual plant response rating; details: for Ryegrass, Italian plant response rating: 125 g ai/ha, preemergence, 0 to 100 scale, 0 no effect, 100 complete control; for Ryegrass, Italian plant response rating (0 to 100 scale): 500 g ai/ha Preemergence, approx. 10 days
Outline: as §2

kochia (Kochia scoparia) [7] = assay: Test A preemergence, visual plant response rating; details: for Kochia plant response rating: 125 g ai/ha, preemergence, 0 to 100 scale, 0 no effect, 100 complete control; for Kochia plant response rating (0 to 100 scale): 500 g ai/ha Preemergence, approx. 10 days
Outline: as §2

[8] = system: ragweed (common ragweed, Ambrosia elatior); assay: Test A preemergence, visual plant response rating; details: for Ragweed plant response rating: 125 g ai/ha, preemergence, 0 to 100 scale, 0 no effect, 100 complete control; for Ragweed plant response rating (0 to 100 scale): 500 g ai/ha Preemergence, approx. 10 days
Outline: as §2

[9] = system: foxtail, giant (giant foxtail, Setaria faberii); assay: Test A preemergence, visual plant response rating; details: for Foxtail, Giant plant response rating: 125 g ai/ha, preemergence, 0 to 100 scale, 0 no effect, 100 complete control; for Foxtail, Giant plant response rating (0 to 100 scale): 500 g ai/ha Preemergence, approx. 10 days
Outline: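 Formulated in a non-phytotoxic solvent mixture including surfactant, each test chemical was sprayed onto the soil surface after sowing, or onto seedlings 2 to 10 cm high. Roughly 10 days later, plants were compared with untreated controls and rated for injury from 0 (no effect) to 100 (complete control).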

[10] = system: galium (catchweed bedstraw, Galium aparine); assay: Test A postemergence, visual plant response rating; details: for Galium plant response rating (0 to 100 scale): 500 g ai/ha, postemergence, 0 is no effect, 100 is complete control; for Galium plant response rating: Postemergence, 125 g ai/ha, 0 to 100 scale (0 no effect, 100 complete control)
Outline: as §2

corn (Zea mays) = assay: Test A postemergence, visual plant response rating; details: for Corn plant response rating (0 to 100 scale): 500 g ai/ha, postemergence, 0 is no effect, 100 is complete control; for Corn plant response rating: Postemergence, 125 g ai/ha, 0 to 100 scale (0 no effect, 100 complete control)
Outline: as §2

[11] = system: blackgrass (Alopecurus myosuroides); assay: Test A postemergence, visual plant response rating; details: for Blackgrass plant response rating (0 to 100 scale): 500 g ai/ha, postemergence, 0 is no effect, 100 is complete control; for Blackgrass plant response rating: Postemergence, 125 g ai/ha, 0 to 100 scale (0 no effect, 100 complete control)
Outline: as §2

[12] = system: pigweed (Amaranthus retroflexus); assay: Test A postemergence, visual plant response rating; details: for Pigweed plant response rating (0 to 100 scale): 500 g ai/ha, postemergence, 0 is no effect, 100 is complete control; for Pigweed plant response rating: Postemergence, 125 g ai/ha, 0 to 100 scale (0 no effect, 100 complete control)
Outline: as §2

[13] = system: barnyardgrass (Echinochloa crus-galli); assay: Test A postemergence, visual plant response rating; details: for Barnyardgrass plant response rating (0 to 100 scale): 500 g ai/ha, postemergence, 0 is no effect, 100 is complete control; for Barnyardgrass plant response rating: Postemergence, 125 g ai/ha, 0 to 100 scale (0 no effect, 100 complete control)
Outline: as §2

[14] = system: Italian ryegrass (Lolium multiflorum); assay: Test A postemergence, visual plant response rating; details: for Ryegrass, Italian plant response rating (0 to 100 scale): 500 g ai/ha, postemergence, 0 is no effect, 100 is complete control; for Ryegrass, Italian plant response rating: Postemergence, 125 g ai/ha, 0 to 100 scale (0 no effect, 100 complete control)
Outline: as §2

kochia (Kochia scoparia) [15] = assay: Test A postemergence, visual plant response rating; details: for Kochia plant response rating (0 to 100 scale): 500 g ai/ha, postemergence, 0 is no effect, 100 is complete control; for Kochia plant response rating: Postemergence, 125 g ai/ha, 0 to 100 scale (0 no effect, 100 complete control)
Outline: as §2

[16] = system: ragweed (common ragweed, Ambrosia elatior); assay: Test A postemergence, visual plant response rating; details: for Ragweed plant response rating (0 to 100 scale): 500 g ai/ha, postemergence, 0 is no effect, 100 is complete control; for Ragweed plant response rating: Postemergence, 125 g ai/ha, 0 to 100 scale (0 no effect, 100 complete control)
Outline: as §2

[17] = system: wheat (Triticum aestivum); assay: Test A postemergence, visual plant response rating; details: for Wheat plant response rating (0 to 100 scale): 500 g ai/ha, postemergence, 0 is no effect, 100 is complete control; for Wheat plant response rating: Postemergence, 125 g ai/ha, 0 to 100 scale (0 no effect, 100 complete control)
Outline: as §2

[18] = system: foxtail, giant (giant foxtail, Setaria faberii); assay: Test A postemergence, visual plant response rating; details: for Foxtail, Giant plant response rating (0 to 100 scale): 500 g ai/ha, postemergence, 0 is no effect, 100 is complete control; for Foxtail, Giant plant response rating: Postemergence, 125 g ai/ha, 0 to 100 scale (0 no effect, 100 complete control)
Outline: as §2

Row | SMILES | Plant response rating, Ducksalad (0 to 100 scale, 0 is no effect, 100 is complete control) [1] | Plant response rating, Rice (0 to 100 scale, 0 is no effect, 100 is complete control) (rice (Oryza sativa)) | Plant response rating, Barnyardgrass (0 to 100 scale, 0 is no effect, 100 is complete control) [2] | Plant response rating, Sedge, Umbrella (0 to 100 scale, 0 is no effect, 100 is complete control) [3] | Pigweed plant response rating [4] | Pigweed plant response rating (0 to 100 scale) [4] | Barnyardgrass plant response rating [5] | Barnyardgrass plant response rating (0 to 100 scale) [5] | Ryegrass, Italian plant response rating [6] | Ryegrass, Italian plant response rating (0 to 100 scale) [6] | Kochia plant response rating (kochia (Kochia scoparia) [7]) | Kochia plant response rating (0 to 100 scale) (kochia (Kochia scoparia) [7]) | Ragweed plant response rating [8] | Ragweed plant response rating (0 to 100 scale) [8] | Foxtail, Giant plant response rating [9] | Foxtail, Giant plant response rating (0 to 100 scale) [9] | Galium plant response rating (0 to 100 scale) [10] | Galium plant response rating [10] | Corn plant response rating (0 to 100 scale) (corn (Zea mays)) | Corn plant response rating (corn (Zea mays)) | further results
1 | CON=C(c1c(O)c(C)nn(C)c1=O)c1cccc2ccoc12 [Compound 60] | 0 | 0 | 0 | 0 | 0 | 30 | 0 | 0 | 0 | 40 | 0 | 0 | 0 | 30 | 10 | 10 | 70 | 60 | 0 | 0 | Blackgrass plant response rating (0 to 100 scale) [11]: 10; Blackgrass plant response rating [11]: 0; Pigweed plant response rating (0 to 100 scale) [12]: 90; Pigweed plant response rating [12]: 50; Barnyardgrass plant response rating (0 to 100 scale) [13]: 0; Barnyardgrass plant response rating [13]: 0; Ryegrass, Italian plant response rating (0 to 100 scale) [14]: 20; Ryegrass, Italian plant response rating [14]: 10; Kochia plant response rating (0 to 100 scale) (kochia (Kochia scoparia) [15]): 50; Kochia plant response rating (kochia (Kochia scoparia) [15]): 30; Ragweed plant response rating (0 to 100 scale) [16]: 40; Ragweed plant response rating [16]: 20; Wheat plant response rating (0 to 100 scale) [17]: 40; Foxtail, Giant plant response rating (0 to 100 scale) [18]: 30; Foxtail, Giant plant response rating [18]: 0
2 | C#CCO/N=C(/c1c(O)c(C)nn(C)c1=O)c1ccc(F)c2ccccc12 [Compound 109, 4-[(E)-(4-fluoro-1-naphthalenyl)[(2-propyn-1-yloxy)imino]methyl]-5-hydroxy-2,6-dimethyl-3(2H)-pyridazinone] | 40 | 45 | 50 | 60 | 100 | 100 | 90 | 100 | 100 | 100 | 10 | 50 | 90 | 100 | 100 | 100 | 100 | 100 | 70 | 20 | Blackgrass plant response rating (0 to 100 scale) [11]: 100; Blackgrass plant response rating [11]: 90; Pigweed plant response rating (0 to 100 scale) [12]: 100; Pigweed plant response rating [12]: 90; Barnyardgrass plant response rating (0 to 100 scale) [13]: 90; Barnyardgrass plant response rating [13]: 90; Ryegrass, Italian plant response rating (0 to 100 scale) [14]: 100; Ryegrass, Italian plant response rating [14]: 100; Kochia plant response rating (0 to 100 scale) (kochia (Kochia scoparia) [15]): 90; Kochia plant response rating (kochia (Kochia scoparia) [15]): 70; Ragweed plant response rating (0 to 100 scale) [16]: 90; Ragweed plant response rating [16]: 80; Wheat plant response rating (0 to 100 scale) [17]: 90; Wheat plant response rating [17]: 90; Foxtail, Giant plant response rating (0 to 100 scale) [18]: 90; Foxtail, Giant plant response rating [18]: 80
3 | CO/N=C(\c1cc(C)ccc1Cl)c1c(O)c(C)nn(C)c1=O [Compound 38] | 0 | 0 | 0 | 0 | 0 | 0 | 0 | 0 | 0 | 0 | 0 | 20 | 30 | 30 | 0 | 10 | 90 | 80 | 20 | 10 | Blackgrass plant response rating (0 to 100 scale) [11]: 30; Blackgrass plant response rating [11]: 10; Pigweed plant response rating (0 to 100 scale) [12]: 60; Pigweed plant response rating [12]: 20; Barnyardgrass plant response rating (0 to 100 scale) [13]: 20; Barnyardgrass plant response rating [13]: 20; Ryegrass, Italian plant response rating (0 to 100 scale) [14]: 20; Ryegrass, Italian plant response rating [14]: 10; Kochia plant response rating (0 to 100 scale) (kochia (Kochia scoparia) [15]): 50; Kochia plant response rating (kochia (Kochia scoparia) [15]): 10; Ragweed plant response rating (0 to 100 scale) [16]: 70; Ragweed plant response rating [16]: 60; Wheat plant response rating (0 to 100 scale) [17]: 0; Wheat plant response rating [17]: 0; Foxtail, Giant plant response rating (0 to 100 scale) [18]: 30; Foxtail, Giant plant response rating [18]: 10
